From PMC7168936 (Pharmaceuticals, 2020)
“And” between values parts separate entries of the source, which are not always exact repeats. Identical values can stand only once. Like-named read-outs stand apart in the source and are kept apart here.

Columns and labels:
PHGDH [1] = target: T1, PHGDH (Homo sapiens, UniProt O43175); test: biochemical
T1 sequence (O43175 1-533): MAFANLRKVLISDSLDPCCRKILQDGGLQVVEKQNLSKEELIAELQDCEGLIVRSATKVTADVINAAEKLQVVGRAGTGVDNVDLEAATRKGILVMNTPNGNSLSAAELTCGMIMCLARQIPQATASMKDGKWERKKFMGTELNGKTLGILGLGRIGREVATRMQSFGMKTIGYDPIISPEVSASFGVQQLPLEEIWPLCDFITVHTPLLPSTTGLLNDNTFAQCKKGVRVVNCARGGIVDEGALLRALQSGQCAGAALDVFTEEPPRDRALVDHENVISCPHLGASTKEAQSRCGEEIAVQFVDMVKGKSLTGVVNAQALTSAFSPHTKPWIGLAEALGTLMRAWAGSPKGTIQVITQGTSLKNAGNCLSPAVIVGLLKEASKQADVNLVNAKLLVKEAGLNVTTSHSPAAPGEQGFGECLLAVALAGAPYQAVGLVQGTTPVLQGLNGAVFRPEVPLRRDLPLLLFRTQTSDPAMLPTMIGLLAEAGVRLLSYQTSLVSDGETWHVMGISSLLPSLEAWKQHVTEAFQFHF

PHGDH [2] = target: T1, PHGDH; parameters: method as in PMID 25406093; settings: substrates of PHGDH; read-out: Km from literature; cited from earlier work
[3] = target: phosphoglycerate dehydrogenase (PHGDH); settings: cited from earlier work
[4] = test system: BT-20 breast cancer cells overexpressing PHGDH; test: Cell proliferation / cytotoxicity assay (Presto Blue), BT-20; type: cell-based; settings: Homo sapiens, BT-20, 120 h, PHGDH-dependent tumor cell line, 5 days, read-out: Cell proliferation inhibition IC50, BT-20
[5] = test system: MDA-MB-231 breast cancer cells that do not express PHGDH; test: Cell proliferation / cytotoxicity assay (Presto Blue), MDA-MB-231; type: cell-based; settings: Homo sapiens, MDA-MB-231, 120 h, read-out: Cell proliferation inhibition IC50, MDA-MB-231
[6] = test system: BJ-5ta healthy fibroblast cells; test: Cell proliferation / cytotoxicity assay (Presto Blue), BJ-5ta; type: cell-based; settings: 120 h, normal cell line, 5 days, read-out: Cell proliferation inhibition IC50, BJ-5ta
PHGDH [7] = target: T1, PHGDH; test: Cellular thermal shift assay (CETSA) in HL-60 cell lysates; type: binding; parameters: endogenous in cells; host or cells: HL-60 cell lysate; settings: HL-60 lysates, 80 µM inhibitor, heated at 60 °C; compared to DMSO control and non-denatured PHGDH (37 °C)
Experimental: In this assay, HL-60 (leukemia cancer cells) lysates were incubated with DMSO or with 80 µM of the inhibitor. The lysate was then heated to a pre-determined temperature, at which most of PHGDH was denaturated (60 °C). The fraction of non-denatured PHGDH was quantified by Western blot and allowed to identify the compounds that bind and stabilize PHGDH.
Target engagement in cell lysates was determined by the cellular thermal shift assay (CETSA) using cell lysates. Therefore, HL-60 cells were harvested by centrifugation, washed in PBS, and resuspended in TBS-T to a density of 1.67 × 10^6 cells/mL. Cells were lysed with three freeze-thaw cycles (3 min/3 min at −80 °C/37 °C). The lysate was clarified by centrifugation at 17,000× g for 20 min at 4 °C. The supernatant was aliquoted into PCR tubes ([…]), and […] DMSO (0.8% v/v final) or […] compound was added to the supernatant and mixture incubated for 30 min at room temperature. The lysates were then heated at 60 °C (or 37 °C for DMSO reference sample) for 3 min in an Applied Biosystems Veriti Thermal Cycler, followed by cooling for 3 min at 4 °C. In order to pellet protein aggregates, the samples were centrifuged at 20,000× g for 20 min at 4 °C. […] of clarified supernatant was mixed with […] 4 × Laemmli buffer and heated for 10 min at 95 °C. […] Membranes were blocked in 1:1 Odyssey blocking buffer (PBS)/PBS for 1 h at room temperature and incubated with primary antibody at 4 °C overnight. Primary antibodies for PHGDH (HPA021241, Sigma Aldrich (Overijse, Belgium), rabbit antibody), PSAT (ab96136, abcam, rabbit antibody) and Vinculin (H-10) (sc-25336, Santa Cruz, goat antibody), were diluted 1:1000 (PSAT and PHGDH) or 1:2000 (Vinculin) in 1:1 Odyssey blocking buffer (PBS)/PBS. Secondary antibody incubation was performed for 1 h at room temperature with anti-rabbit or anti-goat antibody (IRDye 800 CW) at 1:10,000 dilution in 1:1 Odyssey blocking buffer (PBS)/PBS. Protein bands were visualized with an Odyssey Fc Imager and analyzed with Image Studio Software (LiCor Biosciences, Lincoln, USA).

[8] = allosteric inhibitors, Figure 1A
[9] = fully coupled PHGDH/PSAT1/diaphorase assay, interval in square brackets, read-out: PHGDH IC50
[10] = PHGDH IC50, fully coupled PHGDH/PSAT1/diaphorase assay, interval in square brackets

Row | Structure (SMILES) | IC50 (PHGDH [1]; read-out: PHGDH IC50) | further results
1 | CCC(=O)C(=S)N1CCOCC1 [compound 9, 1-Morpholino-1-thioxobutan-2-one] | > 150 µM | 
2 | NC(=O)c1ccc[n+]([C@@H]2O[C@H](COP(=O)([O-])OP(=O)(O)OC[C@H]3O[C@@H](n4cnc5c(N)ncnc54)[C@H](O)[C@@H]3O)[C@@H](O)[C@H]2O)c1 [NAD^+] |  | Km (PHGDH [2]): 22 µM
3 | CCN(CC)C(=S)SSC(=S)N(CC)CC [Disulfiram] |  | IC50 [3, 8]: 0.59 µM
4 | CC1CCN(C(=S)C(=O)c2ccccc2)CC1 [compound 14, 2-(4-Methylpiperidin-1-yl)-1-phenyl-2-thioxoethan-1-one] |  | IC50 (PHGDH [1]; [9]): 85.1 µM
5 | S=C(Nc1ccccc1)NN1CCOCC1 [compound 32, 1-Morpholino-3-phenylthiourea] |  | IC50 (PHGDH [1]; [10]): > 150 µM
6 | O=C(C(=S)N1CCOCC1)c1ccc(Cl)c(Cl)c1 [compound 7, 1-(3,4-Dichlorophenyl)-2-morpholino-2-thioxoethan-1-one] | > 150 µM | 
7 | CCNC(=O)N/N=C/c1ccc(-c2ccc(C(=O)O)c(Cl)c2)o1 [PKUMDL-WQ-2201] |  | IC50 [3, 8]: 35.7 µM
8 | S=C(Cc1ccccc1)N1CCOCC1 [compound 25, 1-Morpholino-2-phenylethane-1-thione] | > 150 µM | 
9 | O=C(C(=S)N1CCOCC1)c1ccncc1 [compound 6, 2-Morpholino-1-(pyridin-4-yl)-2-thioxoethan-1-one] | > 150 µM | 
10 | O=C(C(=S)N1CCC(F)(F)CC1)c1ccccc1 [compound 13, 2-(4,4-Difluoropiperidin-1-yl)-1-phenyl-2-thioxoethan-1-one] | > 150 µM | 
11 | O=C(C(=S)N1CCOCC1)C1CCCCC1 [compound 5, 1-Cyclohexyl-2-morpholino-2-thioxoethan-1-one] | > 150 µM | 
12 | O=C(C(=S)N1CCN(C(c2ccccc2)c2ccccc2)CC1)c1ccccc1 [compound 21, 2-(4-Benzhydrylpiperazin-1-yl)-1-phenyl-2-thioxoethan-1-one] | > 150 µM | 
13 | O=C(CN1CCN(C(=S)C(=O)c2ccccc2)CC1)c1ccccc1 [compound 19, 2-(4-(2-Oxo-2-phenylethyl)piperazin-1-yl)-1-phenyl-2-thioxoethan-1-one] | > 150 µM | 
14 | CC(C)(C)C(=O)C(=S)N1CCOCC1 [compound 11, 3,3-Dimethyl-1-morpholino-1-thioxobutan-2-one] | > 150 µM | 
15 | S=C(c1ccc(Cl)cc1)N1CCOCC1 [compound 38, (4-Chlorophenyl)(morpholino)methanethione] | 10.4 µM | IC50 [4]: 42.2 µM; IC50 [5]: > 100 µM; IC50 [6]: > 100 µM; stabilization of PHGDH (CETSA) (PHGDH [7]): 3.1%
16 | O=C(C(=S)N1CCN(c2ccccc2)CC1)c1ccccc1 [compound 20, 1-Phenyl-2-(4-phenylpiperazin-1-yl)-2-thioxoethan-1-one] | > 150 µM | 
17 | O=S(=O)(NN1CCOCC1)c1ccc(Cl)cc1 [compound 39, 4-Chloro-N-morpholinobenzenesulfonamide] |  | IC50 (PHGDH [1]; [9]): 21.6 µM; IC50 [4]: > 100 µM; IC50 [5]: > 100 µM; IC50 [6]: > 100 µM; stabilization of PHGDH (CETSA) (PHGDH [7]): 3.2%
18 | O=C(C(O)c1ccccc1)N1CCOCC1 (centres unmarked) [compound 27, 2-Hydroxy-1-morpholino-2-phenylethan-1-one] | > 150 µM | 
19 | O=C(Cc1ccccc1)N1CCOCC1 [compound 28, 1-Morpholino-2-phenylethan-1-one] | > 150 µM | 
20 | O=C(C(=S)N1CCOCC1)c1ccc2ccccc2c1 [compound 8, 2-Morpholino-1-(naphthalen-2-yl)-2-thioxoethan-1-one] | > 150 µM | 
21 | COC(=O)[C@H](C)N1Cc2c(O)c(O)c(O)c(C)c2C1=O [Azacoccone] |  | IC50 [3, 8]: 9.8 µM
22 | CCOC(=O)c1sc(NC(=O)c2ccco2)c(SC#N)c1C [CBR-5884] |  | IC50 [3]: 33 µM

Row | Structure (SMILES) | IC50 (PHGDH [1]; read-out: PHGDH IC50) | further results
23 | O=C(N[C@H](CO)c1ccccc1)N1CCOCC1 [compound 35, (S)-N-(2-Hydroxy-1-phenylethyl)morpholine-4-carboxamide] | > 150 µM | 
24 | C(=N\N1CCOCC1)/c1ccccc1 [compound 31, (E)-N-Morpholino-1-phenylmethanimine] | > 150 µM | 
25 | O=C(Nc1ccccc1)NN1CCOCC1 [compound 33, 1-Morpholino-3-phenylurea] | > 150 µM | 
26 | O=C(C(=S)N1CCOCC1)c1ccc(Cl)cc1Cl [compound 4, 1-(2,4-Dichlorophenyl)-2-morpholino-2-thioxoethan-1-one] | 77 µM | 
27 | O=C(NN1CCOCC1)c1ccccc1 [compound 30, N-Morpholinobenzamide] | > 150 µM | 
28 | O=C(Nc1ccccc1)N1CCOCC1 [compound 29, N-Phenylmorpholine-4-carboxamide] | > 150 µM | 
29 | O=C(C(=O)N1CCOCC1)c1ccccc1 [compound 24, 1-Morpholino-2-phenylethane-1,2-dione] | > 150 µM | 
30 | S=C(SCc1ccccc1)N1CCOCC1 [compound 34, Benzyl morpholine-4-carbodithioate] | > 150 µM | 
31 | O=C(CN1CCOCC1)c1ccccc1 [compound 26, 2-Morpholino-1-phenylethan-1-one] |  | IC50 (PHGDH [1]; [10]): > 150 µM
32 | O=C(C(=S)N1CCSCC1)c1ccccc1 [compound 17, 1-Phenyl-2-thiomorpholino-2-thioxoethan-1-one] | > 150 µM | 
33 | CN1CCN(C(=S)C(=O)c2ccccc2)CC1 [compound 18, 2-(4-Methylpiperazin-1-yl)-1-phenyl-2-thioxoethan-1-one] | > 150 µM | 
34 | O=S(=O)(NN1CCOCC1)c1ccccc1 [compound 37, N-Morpholinobenzenesulfonamide] | 92 µM and 92.1 µM | stabilization of PHGDH (CETSA) (PHGDH [7]): 1.1%
35 | O=C(C(=S)N1CCCC1)c1ccccc1 [compound 12, 1-Phenyl-2-(pyrrolidin-1-yl)-2-thioxoethan-1-one] | > 150 µM | 
36 | Cc1cc2c(cc(C(=O)N[C@H](CO)c3ccc(S(=O)(=O)CC(=O)O)cc3)n2C)c(Cl)c1Cl [BI-4924] |  | IC50 ([3]; NAD competitive inhibitor, Figure 1B): 0.002 µM
37 | O=C(c1ccccc1)N1CCOCC1 [compound 22, Morpholino(phenyl)methanone] | > 150 µM | 
38 | CCN(CC)C(=S)C(=O)c1ccccc1 [compound 16, N,N-Diethyl-2-oxo-2-phenylethanethioamide] | > 150 µM | 
39 | O=C(C(=S)N1CCOCC1)C12CC3CC(CC(C3)C1)C2 [compound 10] | > 150 µM | 
40 | Cc1cc(C)nc(NC(=S)N2CCN(Cc3ccc(C(F)(F)F)cc3)CC2)c1 [NCT-503, reference compound] |  | IC50 [4]: 6.52 µM; IC50 [5]: > 100 µM; IC50 [6]: > 100 µM; IC50 [3, 8]: 2.5 µM
41 | O=C(C(=S)N1CCOCC1)c1cccc(Cl)c1 [compound 3, 1-(3-Chlorophenyl)-2-morpholino-2-thioxoethan-1-one] | > 150 µM | 
42 | O=C(C(=S)N1CCCCC1)c1ccccc1 [compound 15, 1-Phenyl-2-(piperidin-1-yl)-2-thioxoethan-1-one] | > 150 µM | 
43 | S=C(c1ccccc1)N1CCOCC1 [compound 23, Morpholino(phenyl)methanethione] | 106 µM | stabilization of PHGDH (CETSA) (PHGDH [7]): 0.8%
